Laboratory results published in ChEMBL document CHEMBL3612000, “Synthesis, leishmanicidal, trypanocidal and cytotoxic activity of quinoline-hydrazone hybrids” (Eur J Med Chem, 2015).
Values after ≈ are worked out from the molar mass of the structure shown.

Key:
Leishmania panamensis [1] = experiment: Leishmanicidal activity against intracellular amastigotes of Leishmania (Viannia) panamensis MHOM/CO/87/UA140pIR-GFP infected in human U937 cells assessed as decrease of intracellular parasite load after 72 hrs; type: functional, organism-based, U-937
Trypanosoma cruzi [2] = experiment: Trypanocidal activity against intracellular amastigotes of Trypanosoma cruzi Tulahuen infected in human U937 cells assessed as reduction of viability of intracellular amastigotes by measuring beta-galactosidase activity after 72 hrs by spectrophotometry analysis; type: functional, organism-based; settings: U-937, 72 h
[3] = Selectivity index, ratio of LC50 for human U937 cells to EC50 for intracellular amastigotes of Leishmania (Viannia) panamensis MHOM/CO/87/UA140pIR-GFP; type: toxicity, cell-based, U-937
[4] = Selectivity index, ratio of LC50 for human U937 cells to EC50 for intracellular amastigotes of Trypanosoma cruzi Tulahuen; type: toxicity, cell-based, U-937
[5] = (§1) Cytotoxicity against human U937 cells assessed as cell viability after 72 hrs by MTT assay; type: cell-based, U-937; settings: U937 cells, read-out: LC50
Leishmania panamensis [6] = experiment: Leishmanicidal activity against intracellular amastigotes of Leishmania (Viannia) panamensis MHOM/CO/87/UA140pIR-GFP infected in human U937 cells assessed as decrease of intracellular parasite load at 1 ug/ml after 72 hrs; type: functional; settings: U-937, 72 h
Trypanosoma cruzi [7] = experiment: Trypanocidal activity against intracellular amastigotes of Trypanosoma cruzi Tulahuen infected in human U937 cells assessed as reduction of viability of intracellular amastigotes by measuring beta-galactosidase activity at 5 ug/ml after 72 hrs by spectrophotometry analysis; type: functional; settings: U-937, 72 h
U-937 = experiment: as §1; type: cell-based; settings: u-937, 72 h, read-out: LC50 (the source's name)
Leishmania panamensis [8] = experiment: Leishmanicidal activity against intracellular amastigotes of Leishmania (Viannia) panamensis MHOM/CO/87/UA140pIR-GFP infected in human U937 cells assessed as decrease of intracellular parasite load at 20 ug/ml after 72 hrs; type: functional; settings: U-937, 72 h
Trypanosoma cruzi [9] = experiment: Trypanocidal activity against intracellular amastigotes of Trypanosoma cruzi Tulahuen infected in human U937 cells assessed as reduction of viability of intracellular amastigotes by measuring beta-galactosidase activity at 20 ug/ml after 72 hrs by spectrophotometry analysis; type: functional; settings: U-937, 72 h
Leishmania major = experiment: Antileishmanial activity against Leishmania major; type: functional, organism-based
Leishmania panamensis [10] = experiment: Leishmanicidal activity against intracellular amastigotes of Leishmania (Viannia) panamensis MHOM/CO/87/UA140pIR-GFP infected in human U937 cells assessed as decrease of intracellular parasite load at 0.05 ug/ml after 72 hrs; type: functional; settings: U-937, 72 h
Trypanosoma cruzi [11] = experiment: Trypanocidal activity against intracellular amastigotes of Trypanosoma cruzi Tulahuen infected in human U937 cells assessed as reduction of viability of intracellular amastigotes by measuring beta-galactosidase activity at 10 ug/ml after 72 hrs by spectrophotometry analysis; type: functional; settings: U-937, 72 h
Leishmania panamensis [12] = experiment: Leishmanicidal activity against intracellular amastigotes of Leishmania (Viannia) panamensis MHOM/CO/87/UA140pIR-GFP infected in human U937 cells assessed as decrease of intracellular parasite load at 10 ug/ml after 72 hrs; type: functional
Leishmania panamensis [13] = experiment: Leishmanicidal activity against intracellular amastigotes of Leishmania (Viannia) panamensis MHOM/CO/87/UA140pIR-GFP infected in human U937 cells assessed as decrease of intracellular parasite load at 5 ug/ml after 72 hrs; type: functional; settings: U-937, 72 h
[14] = Leishmania panamensis, MHOM/CO/87/UA140pIR-GFP, U-937, 72 h, read-out: EC50

Row | Compound | EC50 (Leishmania panamensis [1]; [14]) | selectivity ratio [3] | CC50 at 72 h [5] | inhibition at 20 µg/mL (Leishmania panamensis [8]) | inhibition at 20 µg/mL (Trypanosoma cruzi [9]) | also measured
1 | O=C(N/N=C/c1ccc(O)cc1O)c1ccc2ccccc2n1 | 0.8 µg/mL (≈ 2.6 µM) | 4.5 | 11.7 µM | – | – | EC50 (Trypanosoma cruzi [2]): 6.6 µg/mL (≈ 21.5 µM); selectivity ratio [4]: 0.5; inhibition at 1 µg/mL (Leishmania panamensis [6]): 64.7%; inhibition at 5 µg/mL (Trypanosoma cruzi [7]): 41.5%
2 | MEGLUMINE ANTIMONATE [listing 1 of 2 here] | – | – | – | – | – | EC50 (Leishmania panamensis [1]; u-937): 6.3 µg/mL; Ratio ([3]; u-937): 78.6; CC50 (U-937): 6 µM
3 | O=C(N/N=C/c1cccc(O)c1O)c1ccc2ccccc2n1 | 6.5 µg/mL (≈ 21.2 µM) | 4.7 | 99.6 µM | 75.7% | 31% | –
4 | O=C(N/N=C/c1ccc(O)c(O)c1O)c1ccnc2ccccc12 | – | – | 347 µM | 21.3% | 15.7% | –
5 | CCN(CC)NC(=O)c1ccc(OCc2ccccc2)cc1 | – | – | – | – | – | IC50 (Leishmania major): 21 µM
6 | O=C(Cn1ccnc1[N+](=O)[O-])NCc1ccccc1 [BENZNIDAZOLE] | – | – | – | – | 87.6% | EC50 (Trypanosoma cruzi [2]): 10.5 µg/mL (≈ 40.3 µM); selectivity ratio [4]: 17
7 | C[C@@H]1[C@H](O)[C@@H](C)/C=C/C=C/C=C/C=C/C=C/C=C/C=C/[C@H](O[C@@H]2O[C@H](C)[C@@H](O)[C@H](N)[C@@H]2O)C[C@@H]2O[C@](O)(C[C@@H](O)C[C@@H](O)[C@H](O)CC[C@@H](O)C[C@@H](O)CC(=O)O[C@H]1C)C[C@H](O)[C@H]2C(=O)O [AMPHOTERICIN B] | – | 1050 | 45.6 µM | – | – | inhibition at 0.05 µg/mL (Leishmania panamensis [10]): 76%
8 | O=C(N/N=C/c1ccc(O)cc1O)c1ccnc2ccccc12 | – | – | 34.5 µM | – | – | inhibition at 10 µg/mL (Trypanosoma cruzi [11]): 27.7%; EC50 (Trypanosoma cruzi [2]): 20.8 µg/mL (≈ 67.7 µM); selectivity ratio [4]: 0.5
9 | MEGLUMINE ANTIMONATE [listing 2 of 2 here] | – | – | – | – | – | inhibition (Leishmania panamensis [12]; U-937): 79.4%
10 | O=C(N/N=C/c1ccc(O)c(O)c1O)c1ccc2ccccc2n1 | 15.4 µg/mL (≈ 47.6 µM) | 4.6 | 221 µM | 68.2% | 36.1% | –
11 | O=C(N/N=C/c1cc(O)ccc1O)c1ccnc2ccccc12 | – | – | > 651 µM | 26.1% | 20.7% | –
12 | O=C(N/N=C/c1cccc(O)c1O)c1ccnc2ccccc12 | – | – | 47.5 µM | – | 27.4% | inhibition at 10 µg/mL (Leishmania panamensis [12]; U-937, 72 h): 47.4%
13 | O=C(N/N=C/c1cc(O)ccc1O)c1ccc2ccccc2n1 | 37.2 µg/mL (≈ 121 µM) | 2.8 | 159 µM | 64% | 24% | –
14 | O=C(N/N=C/c1ccccc1O)c1ccc2ccccc2n1 | – | – | 56 µM | 16.8% | – | EC50 (Trypanosoma cruzi [2]): 1.4 µg/mL (≈ 4.81 µM); selectivity ratio [4]: 11.6; inhibition at 5 µg/mL (Trypanosoma cruzi [7]): 50.4%
15 | O=C(N/N=C/c1ccc(O)cc1O)c1nccc2ccccc12 | 3.4 µg/mL (≈ 11.1 µM) | 2.6 | 28.6 µM | – | – | inhibition at 5 µg/mL (Leishmania panamensis [13]): 62.6%
